According to patent US5300672A (priority 1992, dated 1994):
Values after ≈ are worked out from the molar mass of the structure shown. Where two headings read alike, the source gives them in different places.

Assays:
[1] = system: Pseudoperonospora cubensis; experiment: whole plant or invertebrate; type: in vivo; conditions: Pseudoperonospora cubensis, in Cucumis sativus, 168 h; read-out: % Control CDM
Piricularia oryzae = experiment: whole plant or invertebrate; type: in vivo; conditions: Pyricularia oryzae; for pest or weed control at 100 ppm: read-out: % Control RB, application rate 100 ppm
[2] = system: Puccinia graminis (f. sp. tritici Race 15B-2); experiment: whole plant or invertebrate; type: in vivo; conditions: Puccinia graminis, 336 h, read-out: % Control WSR
Phytophthora infestans = experiment: whole plant or invertebrate; type: in vivo; conditions: Phytophthora infestans, in Solanum lycopersicum, 96 h; for pest or weed control at 200 ppm: read-out: % Control TLB, application rate 200 ppm
Aureobasidium pullulans [3] = experiment: Broth two-fold serial dilution MIC test (Table 3), A.p; type: cell-based; conditions: dilution series 500 to 4 ppm
Source text: (§1) A minimum inhibitory concentration (MIC) value is obtained using a broth, two-fold serial dilution test performed as follows: A stock solution or dispersion of the test compound, typically at a concentration of 1%, is made in a 5:3:2 solvent solution of acetone, methanol, and water. A volume of the stock solution is dispensed into culture media to give an initial starting test concentration of 500 ppm compound.
(§2) When the test is ready to be done, each vessel in the dilution series, except the first vessel, contains an equal volume of compound free broth. The first vessel contains twice the volume of broth with the starting concentration of test compound. One half of the broth from the first vessel is transferred to the second vessel. After being mixed, one half the resulting volume is removed from the second vessel and transferred to the third vessel. The entire cycle is repeated sufficiently to give a series of concentrations amounting to 500, 250, 125, 63, 31, 16, 8, and 4 ppm, respectively.
(§3) Each vessel is then inoculated with a cell suspension of the appropriate test organism. Bacteria are grown in broth and fungi on agar slants for a time and at a temperature appropriate to the species being tested. At the end of the growth period, the broth is vortexed to disperse the cells. In the case of fungi, the spores are harvested by pipetting water onto the slant and dislodging the spores with a sterile loop. The cell/spore suspension is standardized by controlling incubation time, temperature, and the volume of the diluent. The suspension is then used to inoculate the vessels containing the broth compound. The vessels are then incubated at the appropriate temperature. After the incubation, the vessels are examined for growth/no growth. The minimum inhibitory concentration (MIC) is defined as the lowest concentration of compound that results in complete inhibition of growth of the test organism.
Aureobasidium pullulans (A.p)

[4] = system: Puccinia recondita (f. sp. tritici Races PKB and PLD); experiment: whole plant or invertebrate; type: in vivo; conditions: Puccinia recondita, 240 h; read-out: % Control WLR
Pseudomonas aerugenosa [5] = experiment: Broth two-fold serial dilution MIC test (Table 3), Ps.ae; type: cell-based; conditions: gram negative, dilution series 500 to 4 ppm
Source text: as §1, §2, §3
Pseudomonas aerugenosa (Ps.ae), gram negative

Pseudomonas fluorescens [6] = experiment: Broth two-fold serial dilution MIC test (Table 3), Ps.fl; type: cell-based; conditions: gram negative, dilution series 500 to 4 ppm
Source text: as §1, §2, §3
Pseudomonas fluorescens (Ps.fl), gram negative

Escherichia coli [7] = experiment: Broth two-fold serial dilution MIC test (Table 3), E.c; type: cell-based; conditions: gram negative, dilution series 500 to 4 ppm
Source text: as §1, §2, §3
Escherichia coli (E.c), gram negative

[8] = system: Erysiphe graminis (f. sp. tritici); experiment: whole plant or invertebrate; type: in vivo; conditions: Blumeria graminis; read-out: % Control WPM
Aspergillus niger [9] = experiment: Broth two-fold serial dilution MIC test (Table 3), A.n; type: cell-based; conditions: dilution series 500 to 4 ppm
Source text: as §1, §2, §3

[10] = system: Pellicularia filamentosa (f. sp. sasiki); experiment: whole plant or invertebrate; type: in vivo; conditions: 120 h; read-out: % Control RSB
Staphylococcus aureus [11] = experiment: Broth two-fold serial dilution MIC test (Table 3), S.a; type: cell-based; conditions: gram positive, dilution series 500 to 4 ppm
Source text: as §1, §2, §3
Staphylococcus aureus (S.a), gram positive

Pythium ultimum = Pythium ultimum in vitro Fungitoxicity Assay in liquid culture; type: cell-based, Pythium ultimum (ATCC 26083); conditions: Globisporangium ultimum; mycelial dry weight, 48 h at 25° C., shaking at 60 rpm; read-out: EC 50
Protocol: Selected compounds of Examples 1-120 were subjected also to the following in vitro fungitoxicity assay against Pythium ultimum in a liquid culture, with the results as indicated in Table 6.
Pythium ultimum Fungitoxicity Assay
A dilution series of the test compound was prepared in dimethylsulfoxide, and 0.1 ml of each dilution was added to 19.9 ml of a liquid asparagine-sucrose medium (D. C. Erwin and K. Katznelson (1971), Can. J. Microbiol. 7, 15) in 9 cm diameter petri dishes to give the desired final concentrations of test compound. Plates were inoculated with mycelial plugs, 7 mm diameter, taken from the growing edge of 48 h old cultures of Pythium ultimum, (ATCC 26083), grown on potato dextrose agar. Two replicate plates were used for each treatment. The increase in mycelial dry weight was determined after growth for 48 h at 25° C. with shaking at 60 rpm. EC50 values were calculated from dose response curves.

Candida albicans = experiment: Alternate Minimum Inhibitory Concentrations Test (Table 4), C.alb; type: cell-based; conditions: Table 4 alternate test, 250 ppm to 0.8 ppm in TSB
Escherichia coli [12] = experiment: Alternate Minimum Inhibitory Concentrations Test (Table 4), E.c; type: cell-based; conditions: Table 4 alternate test, 250 ppm to 0.8 ppm in TSB
Pseudomonas aerugenosa [13] = experiment: Alternate Minimum Inhibitory Concentrations Test (Table 4), Ps.ae; type: cell-based; conditions: Table 4 alternate test, 250 ppm to 0.8 ppm in TSB
Aspergillus niger [14] = experiment: Alternate Minimum Inhibitory Concentrations Test (Table 4), A.n; type: cell-based; conditions: Table 4 alternate test, 250 ppm to 0.8 ppm in TSB
Aureobasidium pullulans [15] = experiment: Alternate Minimum Inhibitory Concentrations Test (Table 4), A.p; type: cell-based; conditions: Table 4 alternate test, 250 ppm to 0.8 ppm in TSB
Pseudomonas fluorescens [16] = experiment: Alternate Minimum Inhibitory Concentrations Test (Table 4), Ps.fl; type: cell-based; conditions: Pseudomonas fluorescens; Table 4 alternate test; 250 ppm to 0.8 ppm in TSB, 72 hours, 30° C.; read-out: MIC Ps.fl
Summary of the method: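 MIC taken as lowest concentration showing no growth after 72 h incubation at 30 °C in TSB. Twofold dilution series spanned 250 down to 0.8 ppm, wells inoculated with phosphate-buffer-diluted 24 h culture.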

Staphylococcus aureus [17] = experiment: Alternate Minimum Inhibitory Concentrations Test (Table 4), S.a; type: cell-based; conditions: Table 4 alternate test, 250 ppm to 0.8 ppm in TSB
[18] = read-out: % Control TLB, application rate 100 ppm

CCCCCCCCNC(=O)/C=C\SC(=O)CCC1CCCC1 [Compound 11, N-octyl-cis-3-[(3-cyclopentanepropanoyl)thio]acrylamide]
pest or weed control at 50 ppm [1]: 85%
pest or weed control at 50 ppm (Piricularia oryzae; read-out: % Control RB, application rate 50 ppm): 75%
pest or weed control at 200 ppm [2]: 90%
pest or weed control at 100 ppm (Phytophthora infestans; read-out: % Control TLB): 90%
MIC (Aureobasidium pullulans [3]): < 4 µg/mL
pest or weed control at 100 ppm [4]: 50%
MIC (Pseudomonas aerugenosa [5]): > 500 µg/mL
MIC (Pseudomonas fluorescens [6]): > 500 µg/mL
MIC (Escherichia coli [7]): > 500 µg/mL
pest or weed control at 100 ppm [8]: 0%
MIC (Aspergillus niger [9]): 250 µg/mL (≈ 736 µM)
pest or weed control at 100 ppm [10]: 0%
MIC (Staphylococcus aureus [11]): > 500 µg/mL

CCCCCCCCNC(=O)/C=C\SC(=O)CC [Compound 10, N-octyl-cis-3-(propanoylthio)acrylamide]
pest or weed control at 50 ppm [1]: 85%
pest or weed control at 100 ppm (Piricularia oryzae): 80%
pest or weed control at 200 ppm [2]: 90%
pest or weed control at 100 ppm (Phytophthora infestans; read-out: % Control TLB): 90%
MIC (Aureobasidium pullulans [3]): < 4 µg/mL
pest or weed control at 100 ppm [4]: 50%
MIC (Pseudomonas aerugenosa [5]): > 500 µg/mL
MIC (Pseudomonas fluorescens [6]): 16 µg/mL (≈ 58.9 µM)
MIC (Escherichia coli [7]): > 500 µg/mL
pest or weed control at 100 ppm [8]: 0%
MIC (Aspergillus niger [9]): 125 µg/mL (≈ 461 µM)
pest or weed control at 100 ppm [10]: 0%
MIC (Staphylococcus aureus [11]): < 4 µg/mL

C#CCNC(=O)/C=C\SC(=O)c1ccccc1 [Compound 113, N-(2-propynyl)-cis-3-(benzoylthio)acrylamide]
EC50 (Pythium ultimum): 6.9 µg/mL (≈ 28.1 µM)
pest or weed control at 200 ppm [1]: 50%
MIC (Candida albicans): ≥ 125 µg/mL
pest or weed control at 200 ppm (Piricularia oryzae; read-out: % Control RB, application rate 200 ppm): 0%
MIC (Escherichia coli [12]): 31 µg/mL (≈ 126 µM)
pest or weed control at 200 ppm (Phytophthora infestans): 0%
MIC (Pseudomonas aerugenosa [13]): 125 µg/mL (≈ 510 µM)
MIC (Aspergillus niger [14]): ≥ 250 µg/mL
MIC (Aureobasidium pullulans [15]): 31 µg/mL (≈ 126 µM)
pest or weed control at 50 ppm [4]: 25%
MIC (Pseudomonas fluorescens [16]): 63 µg/mL (≈ 257 µM)
pest or weed control at 200 ppm [8]: 0%
MIC (Staphylococcus aureus [17]): 63 µg/mL (≈ 257 µM)

CCCCCCCCNC(=O)/C=C\SC(=O)c1ccc(C)cc1C [Compound 43, N-octyl-cis-3-[(2,4-dimethylbenzoyl)thio]acrylamide]
EC50 (Pythium ultimum): 5.2 µg/mL (≈ 15 µM)
pest or weed control at 50 ppm [1]: 50%
pest or weed control at 100 ppm (Piricularia oryzae): 0%
pest or weed control at 200 ppm [2]: 50%
pest or weed control at 100 ppm (Phytophthora infestans; [18]): 0%
MIC (Aureobasidium pullulans [3]): 16 µg/mL (≈ 46 µM)
pest or weed control at 100 ppm [4]: 0%
MIC (Pseudomonas aerugenosa [5]): > 500 µg/mL
MIC (Pseudomonas fluorescens [6]): > 500 µg/mL
MIC (Escherichia coli [7]): > 500 µg/mL
pest or weed control at 100 ppm [8]: 0%
MIC (Aspergillus niger [9]): > 500 µg/mL
MIC (Staphylococcus aureus [11]): > 500 µg/mL

CCCCCCCCNC(=O)/C=C\SC(=O)c1ccc([N+](=O)[O-])c(OC)c1 [Compound 105, N-octyl-cis-3-[(3-methoxy-4-nitrobenzoyl)thio]acrylamide]
pest or weed control at 200 ppm [1]: 90%
MIC (Candida albicans): < 2 µg/mL
MIC (Escherichia coli [12]): > 250 µg/mL
pest or weed control at 200 ppm (Phytophthora infestans): 0%
MIC (Pseudomonas aerugenosa [13]): > 250 µg/mL
MIC (Aspergillus niger [14]): 24 µg/mL (≈ 60.8 µM)
MIC (Aureobasidium pullulans [15]): < 2 µg/mL
pest or weed control at 200 ppm [4]: 0%
MIC (Pseudomonas fluorescens [16]): ≥ 125 µg/mL
pest or weed control at 200 ppm [8]: 0%
MIC (Staphylococcus aureus [17]): > 250 µg/mL

CCCCCCCCNC(=O)/C=C\SC(=O)CCCl [Compound 24, N-octyl-cis-3-[(3-chloropropanoyl)thio]acrylamide]
MIC (Candida albicans): 12 µg/mL (≈ 39.2 µM)
pest or weed control at 100 ppm (Piricularia oryzae): 0%
MIC (Escherichia coli [12]): > 250 µg/mL
pest or weed control at 100 ppm (Phytophthora infestans; [18]): 95%
MIC (Pseudomonas aerugenosa [13]): > 250 µg/mL
MIC (Aspergillus niger [14]): 63 µg/mL (≈ 206 µM)
MIC (Aureobasidium pullulans [15]): < 2 µg/mL
pest or weed control at 100 ppm [4]: 0%
MIC (Pseudomonas fluorescens [16]): > 250 µg/mL
pest or weed control at 100 ppm [8]: 0%
MIC (Staphylococcus aureus [17]): > 250 µg/mL
pest or weed control at 100 ppm [10]: 0%
